Results as given in the supplement of paper PMC10307832.

What was measured:
Assay in all cases: relative viability (nuclei count vs DMSO), 5 days (fraction); higher = more cells survive
[1] = compound: CC1=CC(=NN1)NC2=CC(=NC(=N2)/C=C/C3=CC=CC=C3)N4CCN(CC4)C + COc1cccc2cc(-c3nc([C@H]4CC[C@H](C(=O)O)CC4)n4ncnc(N)c34)[nH]c12 [OSI-027] (partner 0.5 µM)
In short: (§1)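 For relative viability, nuclei counts in treated wells were divided by those in vehicle wells. Lung cancer cell lines had been pin-tool dosed in 1536-well plates the day after seeding and cultured for 5 days, then fixed and stained in one step (final 0.05% Triton X-100, 1% formaldehyde, 1 ug/ml Hoechst) and imaged at 4×. Doses were one drug alone or a fixed anchor-drug dose plus five library-drug doses (not always all listed) in √10 steps, and values are duplicate-plate medians.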

Obatoclax + Decitabine = compound: COC1=CC(c2cc3ccccc3[nH]2)=N/C1=C\c1[nH]c(C)cc1C [Obatoclax] + Nc1ncn([C@H]2C[C@H](O)[C@@H](CO)O2)c(=O)n1 [Decitabine] (partner 2 µM)
In short: as §1

[2] = compound: CC1=CC(=NN1)NC2=CC(=NC(=N2)/C=C/C3=CC=CC=C3)N4CCN(CC4)C + Cc1nc(Nc2ncc(C(=O)Nc3c(C)cccc3Cl)s2)cc(N2CCN(CCO)CC2)n1 [Dasatinib] (partner 0.075 µM)
In short: as §1

Bortezomib + Dasatinib = compound: CC(C)C[C@H](NC(=O)[C@H](Cc1ccccc1)NC(=O)c1cnccn1)B(O)O [Bortezomib] + Cc1nc(Nc2ncc(C(=O)Nc3c(C)cccc3Cl)s2)cc(N2CCN(CCO)CC2)n1 [Dasatinib] (partner 0.075 µM)
In short: as §1

Cell Line | relative viability ([1]; first compound 0.08 µM) | relative viability ([1]; first compound 0.253 µM) | relative viability ([1]; first compound 0.8 µM) | relative viability ([1]; first compound 2.53 µM) | relative viability ([1]; first compound 8 µM) | relative viability (Obatoclax + Decitabine; first compound 0.01 µM) | relative viability (Obatoclax + Decitabine; first compound 0.03162 µM) | relative viability (Obatoclax + Decitabine; first compound 0.1 µM) | relative viability (Obatoclax + Decitabine; first compound 0.3162 µM) | relative viability (Obatoclax + Decitabine; first compound 1 µM) | relative viability ([2]; first compound 0.08 µM) | relative viability ([2]; first compound 0.253 µM) | relative viability ([2]; first compound 0.8 µM) | relative viability ([2]; first compound 2.53 µM) | relative viability ([2]; first compound 8 µM) | relative viability (Bortezomib + Dasatinib; first compound 0.0002 µM) | relative viability (Bortezomib + Dasatinib; first compound 0.000632 µM) | relative viability (Bortezomib + Dasatinib; first compound 0.002 µM) | relative viability (Bortezomib + Dasatinib; first compound 0.006325 µM) | relative viability (Bortezomib + Dasatinib; first compound 0.02 µM)
NCI-H2170 | 0.759 | 0.728 | 0.683 | 0.377 | 0.189 | 0.47 | 0.393 | 0.47 | 0.453 | 0.441 | 0.573 | 0.563 | 0.471 | 0.203 | 0.112 | 0.546 | 0.378 | 0.502 | 0.16 | 0.144
NCI-H2342 | 0.557 | 0.594 | 0.662 | 0.577 | 0.381 | 0.724 | 0.782 | 0.758 | 0.732 | 0.812 | 0.314 | 0.298 | 0.322 | 0.249 | 0.218 | 0.286 | 0.306 | 0.322 | 0.334 | 0.349
NCI-H2347 | 0.37 | 0.431 | 0.465 | 0.347 | 0.197 | 0.607 | 0.561 | 0.579 | 0.563 | 0.653 | 0.297 | 0.305 | 0.336 | 0.293 | 0.24 | 0.685 | 0.353 | 0.332 | 0.321 | 0.219
NCI-H2405 | 0.619 | 0.571 | 0.651 | 0.373 | 0.209 | 0.769 | 0.717 |  | 0.762 | 0.63 | 0.227 | 0.216 | 0.206 | 0.165 | 0.109 | 0.18 | 0.188 | 0.288 | 0.16 | 0.144
NCI-H3122 | 0.901 | 0.763 | 0.975 | 0.675 | 0.186 | 0.434 | 0.489 | 0.39 | 0.435 | 0.453 | 0.9 | 0.633 | 0.811 | 0.551 | 0.176 | 0.878 | 0.873 | 0.901 | 0.233 | 0.0847
PC-3 [JPC-3] | 0.766 | 0.683 | 0.83 | 0.67 | 0.59 | 0.826 | 0.799 | 0.776 | 0.732 | 0.501 | 0.931 | 1.04 | 0.978 | 0.948 | 0.802 | 0.961 | 0.994 | 0.991 | 0.199 | 0.106
PC-14 | 0.856 | 0.825 | 0.802 | 0.0598 | 0.0365 | 0.209 | 0.17 | 0.147 | 0.0898 | 0.0842 | 0.273 | 0.211 | 0.22 | 0.0234 | 0.0115 | 0.294 | 0.236 | 0.168 | 0.028 | 0.0371
RERF-LC-KJ | 0.532 | 0.656 | 0.53 | 0.238 | 0.179 | 0.693 | 0.632 | 0.643 | 0.613 | 0.291 | 0.908 | 0.944 | 0.837 | 0.249 | 0.166 | 0.833 | 0.695 | 0.946 | 0.219 | 0.234
SK-LU-1 | 0.367 | 0.299 | 0.376 | 0.119 | 0.0636 | 0.682 | 0.567 | 0.454 | 0.478 | 0.363 | 0.174 | 0.171 | 0.156 | 0.108 | 0.0621 | 0.17 | 0.202 | 0.214 | 0.0951 | 0.118
SK-MES-1 | 0.604 | 0.617 | 0.524 | 0.139 | 0.103 | 0.366 | 0.374 | 0.468 | 0.233 | 0.202 | 0.479 | 0.322 | 0.493 | 0.139 | 0.0976 | 0.375 | 0.351 | 0.35 | 0.124 | 0.125
SW 900 | 0.493 | 0.58 | 0.489 | 0.259 | 0.0615 | 0.438 | 0.426 | 0.364 | 0.402 | 0.382 | 0.644 | 0.585 | 0.413 | 0.418 | 0.0713 | 0.74 | 0.507 | 0.167 | 0.107 | 0.116
SW 1573 | 0.549 | 0.511 | 0.569 | 0.0922 | 0.0676 | 0.432 | 0.434 | 0.437 | 0.139 | 0.194 | 0.545 | 0.578 | 0.517 | 0.0958 | 0.0582 | 0.488 | 0.867 | 0.24 | 0.0568 | 0.052
UMC-11 | 0.494 | 0.458 | 0.339 | 0.141 | 0.133 | 0.608 | 0.536 | 0.475 | 0.573 | 0.41 | 0.487 | 0.426 | 0.329 | 0.163 | 0.125 | 0.389 | 0.491 | 0.439 | 0.278 | 0.171
